Measurements from patent publication US20090253709A1 (NATIONAL DEFENSE MEDICAL CENTER, priority 2008, published 2009).

Experiments:
MTT assay in BJ1 cells = assay type: cell-based; details: human, hTERT-BJ1-PTERT(3.4)-SEAP cells, BJ1, read-out: MTT (Inhibition μM ± SD)
Procedure, shortened: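 After 48 h drug treatment, cells in DMEM/Medium 199 (4:1) with 10% FBS were given MTT (5 mg/ml stock) in serum-free medium for 4 h at 37 °C, lysed overnight in 20% SDS/50% DMF, and absorbance read at 570 nm.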

hTERT expression = experiment: SEAP assay, H1299/PhTERT-driven SEAP system; assay type: cell-based, human; details: Homo sapiens, NCI-H1299, H1299, read-out: SEAP (Inhibition μM ± SD)
Source text: The condition of the cells for selecting the telomerase inhibitor must be the cancer cells with telomerase activity. H1299 is a non-small cell lung cancer cell line with telomerase activity. The hTERT communication gene linked behind PhTERT which is located at the fifth chromosome of H1299 cell can be expressed; however, this expression is hard to detect. Therefore, the plasmid having the SEAP communication gene linked behind PhTERT was transfected into H1299 cells. Under the identical condition, after PhTERT was activated, the SEAP communication gene linked behind the plasmid was also activated. This gene could be detected by this analytic method while expressing.
If additionally added reagent can inhibit PhTERT, the linked SEAP communication gene will not be expressed, and the hTERT communication gene linked behind PhTERT at the fifth chromosome will not be expressed. […]
The cellular medium after the cellular incubation was transferred into the eppondorf tube, and the activity of endogeneous alkaline phosphatase was inactivated at 65° C. for 10 minutes. After centrification, the mixture was obtained by mixing 50 μl of the supernatant with the equal volume of the SEAP buffer. The mixture and the substrate (120 mM of p-nitrophenylphosphate) were preheated at 37° C. for 10 minutes respectively, and the mixture and the substrate were mixed at a ratio of 1:10 and reacted at 37° C. The absorbance of visible light at 405 nm was determined at the appropriate time intervals, and the enzymatic activity of SEAP was represented by the speed of the increasing absorbance at 405 nm.
The selection of telomerase inhibitors of the anthraquinone compounds provided in the present invention was performed by the H1299/PhTERT-driven SEAP system. SEAP is the communication gene in this drug selection model. The SEAP inhibition was shown as follows. The quantitative cellular medium obtained after the 24-hour drug-treatment and the identical inactivation was reacted with the quantitative SEAP substrate, and the absorbance at 405 nm was detected for 5 time intervals. Subsequently, the linear slope of absorbance to the measuring time was calculated, and the variance of absorbance at 405 nm per minute was represented and compared with the SEAP-producing result of drug-untreated H1299 cells. In addition, the influence of the cell-treated drug solution to the cellular proliferation and the drug toxicity to the cells were considered, and the cellular growth was evaluated by the MTT assay. The drug-treated cells were analyzed by the SEAP assay and the data analysis of MTT assay at the same time. Both results were compared so as to delete the influence of cell number or the activity to SEAP, and the dose-dependent phenomenon could be anticipated in the range of drug concentration designed by the laboratory.
In the preliminary selection, the highest concentration was 1000 μM, and 10-fold serial dilutions were done. Therefore, the final concentrations for treating cells were 1 μM, 10 μM and 100 μM, and the drug concentrations were repeated for 5 times. Since the chemically-synthetic drugs have colors thereon, the SEAP value of drug-treatment without cells was also determined to be the background value which was deducted while treating with the drugs. The candidate drug for inhibiting telomerase on the hTERT gene expression level was evaluated and anticipated.

melting point: 269 °C
SMILES: O=C1c2ccc(NC(=O)C3CCCCC3)cc2C(=O)c2cc(NC(=O)C3CCCCC3)ccc21 [Compound 34, 2,7-Bis(cyclohexanecarbonamido)anthraquinone]
viability at 48 h, 1 µM (MTT assay in BJ1 cells; compound concentration 1 μM): 87 ± 2%
viability at 48 h, 10 µM (MTT assay in BJ1 cells; compound concentration 10 μM): 76 ± 3%
viability at 48 h, 100 µM (MTT assay in BJ1 cells; compound concentration 100 μM): 64 ± 2%
activity at 1 µM (hTERT expression; compound concentration 1 μM): 96 ± 5%
activity at 10 µM (hTERT expression; compound concentration 10 μM): 93 ± 3%
activity at 100 µM (hTERT expression; compound concentration 100 μM): 80 ± 2%
